In patent US20150268254A1, “SEBOCYTE CELL CULTURING AND METHODS OF USE” (Children's Hospital Medical Center, priority 2012, published 2015):

How the values were obtained:
sebocytes = conditions: known effect of reference compound; cited from earlier work
SEB-1 [1] = assay: Real-time PCR of PPARγ expression in immortalized sebocyte line SEB-1; type: cell-based, human; conditions: SEB-1, 0.1 mM linoleic acid, 48 h, vs untreated
Method: (§1) Total RNA was isolated using a Rneasy Mini Kit (Qiagen, Germantown, Md.) and used to produce cDNA (Maxima first strand cDNA synthesis kit, Fermentas, Waltham, Mass.). Reverse transcription (RT) reactions were diluted to 10 ng/pl and 1 pl of each RT was used for real-time PCR. Real-time PCR was performed using the CFX96 real-time PCR System, CFX Manager Software and the SsoFast EvaGreen Supermix reagents (Biorad, Hercules, Calif.). All reactions were run in triplicate and analyzed using the […] with relative expression normalized to GAPDH.
For Nile red staining, cells or OCT sections were fixed 10 minutes at room temperature in 4% formaldehyde. After 3 wash in 1×PBS, staining with 0.1 pg/ml of Nile red (Sigma) was performed in 0.15M NaCl for 15 minutes at room temperature. For Oil red 0 staining, cells were fixed 15 minutes in 10% formalin, wash with water for 10 minutes and 60% isopropanol before being stained with Oil red 0 (0.7% in 60% isopropanol) for 45 minutes. Cells were rinsed with 60% isopropanol and the nuclei stained with haematoxylin. […] The qualitative and quantitative composition of lipids in scalp-derived human sebocytes was determined using an Agilent 5973N Gas chromatograph/Mass spectrometer with a SPE cartridge (solid phase extraction) and was performed by Synelvia S.A.S (Labege, France).

SSG3 cells [2] = assay: Lipogenesis assays (Nile red, Oil red O, electron microscopy, Nile red FACS) in SSG3 cells; type: cell-based, human
Method: (§2) For Nile red staining, cells or OCT sections were fixed 10 minutes at room temperature in 4% formaldehyde. After 3 wash in 1×PBS, staining with 0.1 pg/ml of Nile red (Sigma) was performed in 0.15M NaCl for 15 minutes at room temperature. For Oil red 0 staining, cells were fixed 15 minutes in 10% formalin, wash with water for 10 minutes and 60% isopropanol before being stained with Oil red 0 (0.7% in 60% isopropanol) for 45 minutes. Cells were rinsed with 60% isopropanol and the nuclei stained with haematoxylin. To trigger differentiation of sebocytes in vitro, linoleic acid (Sigma, 0.1 mM) was added directly to sebocyte media. To prepare cells for extraction of lipids, 20-30 millions of cells were pelleted, washed with 1×PBS and lipid were preserved in the dark at −80° C. under argon until analysis. The qualitative and quantitative composition of lipids in scalp-derived human sebocytes was determined using an Agilent 5973N Gas chromatograph/Mass spectrometer with a SPE cartridge (solid phase extraction) and was performed by Synelvia S.A.S (Labege, France).
Cells were cultured in 6-well plates at 80% confluence and infected with the lentivirus expressing the shRNAs as previously described. After puromycin selection for 48 h, cells were washed in 1×PBS and treated with working medium with or without Linoleic acid (0.1 mM) for 24 h. The cells were trypsinized, washed once with 1×PBS and neutral lipids were labeled with the fluorescent dye Nile red (1 pg/ml in PBS). 10,000 cells per sample were analyzed using a FACS Canto I (BD Biosciences) equipped with a blue laser (488 nm excitation).
Cells were grown at 80% confluency in sebocyte media and rinsed once with 0.175M sodium cacodylate buffer. Cells were fixed in 3% glutaraldehyde/0.175M cacodylate buffer for 1 hour at 4° C. Dishes were washed twice with 0.175M sodium cacodylate buffer. Cells were post fixed in 1% osmium tetroxide/cacodylate buffer for 1 hour at 4° C. before being washed three times with 0.175M sodium cacodylate buffer. After the final wash with 1.5 ml, cells were scraped and centrifuged for 5 min at 10K. The cell pellet was then resuspended in 1 ml 1% agarose (Type IX ultra-low gelling tempt, Sigma) overnight at 4° C. The samples were then processed through a graded series of alcohols, infiltrated and embedded in LX-112 resin (Ladd Research, Williston, Vt. After polymerization at 60° C. for three days, ultrathin sections (100 nm) were cut using a Reichert-Jung Ultracut E microtome and counterstained in 2% aqueous uranyl acetate and Reynolds lead citrate. Images were taken with a transmission electron microscope (Hitachi H-6750) equipped with a digital camera (AMT 2k×2K tem CCD).

SSG3 cells [3] = assay: Real-time PCR of lipogenic gene expression in primary SSG3 sebocytes; type: cell-based, human
Method: To ablate TGFβRII in SSG3 cells, shRNA vectors from the CCHMC Heart Institute lenti-shRNA library core (shRNA TGFβRII #197031 and 194992 and a shRNA control) were used. The human library was purchased from Sigma-Aldrich (MISSION shRNA; St. Louis, Mo.). Viral vector was produced by the Viral Vector Core at the Translational Core Laboratories, Cincinnati Children's Hospital Research Foundation. Cells were grown to 80% confluency in 6-well plates before being infected with the lentivirus for 48 h. Infected cells were selected with 1 µg/ml puromycin (Sigma) for 48 h. Following selection, TGFβRII knock down cells were grown in regular media for 48 h before being activated with 5 ng/ml TGFβ1 for 24 h.
as §1, §2

SEB-1 [4] = assay: Immunoblot of Smad2 phosphorylation in SEB-1; type: cell-based, human; conditions: 5 ng/ml TGFβ1, one hour
SSG3 sebocytes = assay: Immunoblot of Smad2 phosphorylation in SSG3 sebocytes; type: cell-based, human; conditions: 5 ng/ml TGFβ1, one hour
NIKS = assay: Immunoblot of Smad2 phosphorylation in NIKS keratinocytes; type: cell-based, human; conditions: 5 ng/ml TGFβ1, one hour
[5] = system: sebocytes-derived from breast and face; assay: Real-time PCR of lipogenic genes in breast- and face-derived sebocytes; type: cell-based, human; conditions: 5 ng/ml TGFβ1, 24 h
Method: as §1
RNA was isolated from sebocytes-derived from breast and face untreated or treated with 5 ng/ml of TGFβ1 for 24 h and used for real-time PCR. Two experiments were performed and all qPCR reactions were performed in triplicate. Data were normalized to GAPDH expression for each cell population and changes in relative expression were determined using untreated cells as a reference point.

[6] = SSG3, 5 ng/ml TGFβ1, 24 h, vs untreated
[7] = TGFβRII-deficient SSG3 cells, TGFβ1

C[C@]12CC[C@H](O)CC1=CC[C@@H]1[C@@H]2CC[C@]2(C)C(=O)CC[C@@H]12 [DHEA, 5-Dehydroepiandrosterone]
effect on lipogenesis (sebocytes): increase lipogenesis

CN(CCOc1ccc(CC2SC(=O)NC2=O)cc1)c1ccccn1 (stereo not shown) [Rosglitazone]
effect on lipogenesis (sebocytes): decrease lipogenesis

CC(=O)O[C@]1(C(C)=O)CC[C@H]2[C@@H]3C=C(Cl)C4=CC(=O)[C@@H]5C[C@@H]5[C@]4(C)[C@H]3CC[C@@]21C [Cyproteron acetate]
effect on lipogenesis (sebocytes): decrease lipogenesis

CC1=C(/C=C/C(C)=C/C=C/C(C)=C\C(=O)O)C(C)(C)CCC1 [Isotretinoin, 13-cis retinoic acid]
effect on cell cycle (sebocytes): cell cycle arrest
effect on proliferation (sebocytes): anti-proliferative effect on sebocytes

C[C@]12CCC(=O)C[C@@H]1CC[C@@H]1[C@@H]2CC[C@]2(C)[C@@H](O)CC[C@@H]12 [5α-DHT, di-hydrotestosterone]
effect on lipogenesis (sebocytes): increase lipogenesis
effect on proliferation (sebocytes): increase proliferation

CCCCC/C=C\C/C=C\CCCCCCCC(=O)O [linoleic acid]
PPARγ expression (SEB-1 [1]): do not show any significant changes
Nile red flow cytometry: fluorescence (neutral lipids) and granularity (SSG3 cells [2]; SSG3, 0.1 mM linoleic acid, 24 h): increase of fluorescence and granularity
lipid droplets by electron microscopy (SSG3 cells [2]; SSG3, after linoleic acid treatment vs untreated): increase of lipid droplets with higher electron density
cellular lipid distribution by Nile red stain (SSG3 cells [2]; SSG3, two days of linoleic acid treatment (0.1 mM)): producing lipids
FADS2 expression (SSG3 cells [3]; SSG3 cells, 0.1 mM linoleic acid, 24 h and 48 h, vs untreated): significant increase of FADS2 expression
PPARγ expression (SSG3 cells [3]; SSG3 cells, 0.1 mM linoleic acid, 48 h, vs untreated): increase in PPARγ

TGFβ1: exogenously recombinant TGFβ1, Transforming Growth Factor β ligand
Smad2 activation (phosphorylated Smad2) (SEB-1 [4]): activate Smad2
lipid production (SSG3 cells [2]; SSG3 expressing TGFβRII shRNA, TGFβ1 5 ng/ml, 24 h): no effect on the lipid production
lipid inclusion (SSG3 cells [2]; SSG3 with non-targeting shRNA control, TGFβ1 5 ng/ml, 24 h): decrease in lipid inclusion
Smad2 activation (phosphorylated Smad2) (SSG3 sebocytes): activate Smad2
mRNA expression of FADS2 (SSG3 cells [3]; [6]): significantly decreased
mRNA expression of PPARγ (SSG3 cells [3]; [6]): significantly decreased
decrease in FADS2 gene expression after TGFβ1 (SSG3 cells [3]; [7]): not detected
decrease in PPARγ gene expression after TGFβ1 (SSG3 cells [3]; [7]): not detected
TGFβRII expression (SSG3 cells [3]; control SSG3 cells treated with TGFβ for 24 h): decrease of TGFβRII
Smad2 activation (phosphorylated Smad2) (NIKS): activate Smad2
FADS2 expression [5]: decreased significantly
PPARγ expression [5]: decreased significantly
